In US20180201592A1, “2-AMINO-1,3,4-THIADIAZINE AND 2-AMINO-1,3,4-OXADIAZINE BASED ANTIFUNGAL AGENTS” (F2G Limited, priority 2015, published 2018):

Tests used:
Conditions in all cases: banded MIC grade
[1] = system: Aspergillus fumigatus; test: Minimum inhibitory concentration, YAG medium; type: cell-based
Summary of the method: (§1)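 Broth microdilution in YAG medium; inoculum 1-2×10^4 cfu/mL; compound 50-0.05 mg/L in doubling steps, from DMSO stock. 24 h, 35° C. Read OD 485 nm; MIC = lowest conc. inhibiting growth >70% vs no-drug control, in mg/L.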

[2] = system: Aspergillus flavus; test: Minimum inhibitory concentration, YAG medium; type: cell-based
Summary of the method: (§2)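 Growth inhibition was read as absorbance at 485 nm after spores of Aspergillus spp. were exposed for 24 hrs at 35° C to doubling dilutions of the compound. Dilutions were made in water starting from a 5 mg/mL DMSO stock, and MIC values were expressed in mg/L.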

[3] = system: Aspergillus niger; test: Minimum inhibitory concentration, YAG medium; type: cell-based
Summary of the method: as §2

[4] = system: Aspergillus terreus; test: Minimum inhibitory concentration, YAG medium; type: cell-based
Summary of the method: as §2

[5] = system: C. krusei; test: Minimum inhibitory concentration, RPMI medium; type: cell-based
Summary of the method: (§3)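 Growth inhibition was judged from optical density at 485 nm per well after 24-48 hrs at 35° C. Test compound came from a 5 mg/mL DMSO stock, serially doubled in water before testing in RPMI 1640.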

[6] = system: C. albicans; test: Minimum inhibitory concentration, RPMI medium; type: cell-based
Summary of the method: as §3

[7] = system: A. niger; test: Minimum inhibitory concentration, RPMI medium; type: cell-based
Summary of the method: as §3

[8] = system: A. terreus; test: Minimum inhibitory concentration, RPMI medium; type: cell-based
Summary of the method: as §3

[9] = system: A. terreus 49; test: Minimum inhibitory concentration, RPMI medium; type: cell-based
Summary of the method: as §3

[10] = system: C. parapsilosis; test: Minimum inhibitory concentration, RPMI medium; type: cell-based
Summary of the method: as §3

[11] = system: A. flavus; test: Minimum inhibitory concentration, RPMI medium; type: cell-based
Summary of the method: as §3

[12] = system: C. tropicalis; test: Minimum inhibitory concentration, RPMI medium; type: cell-based
Summary of the method: as §3

[13] = system: C. glabrata; test: Minimum inhibitory concentration, RPMI medium; type: cell-based
Summary of the method: as §3

[14] = system: A. terreus 49; test: Minimum inhibitory concentration, YAG medium; type: cell-based, Aspergillus terreus
Summary of the method: as §2

[15] = system: A. fumigatus 210; test: Minimum inhibitory concentration, YAG medium; type: cell-based, Aspergillus fumigatus
Summary of the method: as §1

[16] = system: A. fumigatus 210; test: Minimum inhibitory concentration, RPMI medium; type: cell-based
Description: (§4) Between 1 and 5 mgs of compound were accurately weighed out into a sterile Eppendorf tube. The compound was dissolved in DMSO to give a solution containing 5 mg/mL. Tubes were stored at −20° C. until required.
(§5) On the day of testing thawed solutions were vortex mixed to ensure homogeneity. 30 μL of solution was removed and added to 570 μL of sterile water in a separate sterile Eppendorf. The thoroughly mixed solution was used to prepare a series of doubling dilutions in water, in a deep well plate. Thirteen replicate plates were prepared using a Minitrak by aspirating 20 μL from each well into eleven clear polystyrene 96 well plates.
(§6) Assays were also performed in RPMI medium (Roswell Park Memorial Media 1640). To perform MIC tests in this medium, dilutions of compounds are prepared in microtitre plates as described above. Fungal strains to be tested are grown and harvested in an identical manner to that described above, and each organism suspension was diluted in RPMI medium, typically containing 2% glucose and 0.135 M MOPS buffer (pH 7.0) to 0.5-2×10^4cfu/mL, rather than in YAG medium. 80 μL of an organism suspension was added to each well of the plate containing drug dilutions.
(§7) This produced MIC plates with a drug range 50-0.05 mg/L and organism inocula of 1-2×10^4 cfu/mL. All plates were incubated for 24-48 hrs at 35° C. Growth was assessed by monitoring the optical density at 485 nm for each well. The MIC of a compound is the lowest drug concentration that inhibits growth of an organism by >80% compared with a drug free control. The following organisms were tested: C. albicans, C. parapsilosis, C. tropicalis, C. glabrata, C. krusei, A. niger, A. fumigatus, A. terreus, A. flavus, A. terreus 49, and A. fumigatus 210.

[17] = system: A. fumigatus; test: Minimum inhibitory concentration, RPMI medium; type: cell-based
Description: as §4, §5, §6, §7

SMILES | MIC grade, A. FUMIGATUS, YAG media [1] | MIC grade, A. FLAVUS, YAG media [2] | MIC grade, A. NIGER, YAG media [3] | MIC grade, A. TERREUS, YAG media [4] | MIC grade, C. KRUSEI, RPMI media [5] | MIC grade, C. ALBICANS, RPMI media [6] | MIC grade, A. NIGER, RPMI media [7] | MIC grade, A. TERREUS, RPMI media [8] | MIC grade, A. TERREUS 49, RPMI media [9] | MIC grade, C. PARAPSILOSIS, RPMI media [10] | MIC grade, A. FLAVUS, RPMI media [11] | MIC grade, C. TROPICALIS, RPMI media [12] | MIC grade, C. GLABRATA, RPMI media [13] | MIC grade, A. TERREUS 49, YAG media [14] | MIC grade, A. FUMIGATUS 210, YAG media [15] | MIC grade, A. FUMIGATUS 210, RPMI media [16] | MIC grade, A. FUMIGATUS, RPMI media [17]
CC(=O)OCCCCC1=NN=C(N)SC1 | 4 (4: <0.2 mg/L) | 4 (4: <0.2 mg/L) | 3 (3: 0.2-1 mg/L) | 4 (4: <0.2 mg/L) | 4 (4: <1 mg/L) | 3 (3: 1-5 mg/L) | 2 (2: 5-20 mg/L) | 3 (3: 1-5 mg/L) | 3 (3: 1-5 mg/L) | 4 (4: <1 mg/L) | 3 (3: 1-5 mg/L) | 3 (3: 1-5 mg/L) | 2 (2: 5-20 mg/L) | 4 (4: <0.2 mg/L) | 4 (4: <0.2 mg/L) | 3 (3: 1-5 mg/L) | 3 (3: 1-5 mg/L)
NC1=NN=C(CCCCOCCc2ccccc2)CS1 | 3 (3: 0.2-1 mg/L) | 4 (4: <0.2 mg/L) | 3 (3: 0.2-1 mg/L) | 3 (3: 0.2-1 mg/L) | 3 (3: 1-5 mg/L) | 3 (3: 1-5 mg/L) | 2 (2: 5-20 mg/L) | 2 (2: 5-20 mg/L) | 2 (2: 5-20 mg/L) | 3 (3: 1-5 mg/L) | 3 (3: 1-5 mg/L) | 3 (3: 1-5 mg/L) | 2 (2: 5-20 mg/L) | 3 (3: 0.2-1 mg/L) | 3 (3: 0.2-1 mg/L) | 1 (1: ≥20 mg/L) | 2 (2: 5-20 mg/L)
NC1=NN=C(CCCCOCCCc2ccc(F)cc2F)CS1 | 3 (3: 0.2-1 mg/L) | 4 (4: <0.2 mg/L) | 3 (3: 0.2-1 mg/L) | 3 (3: 0.2-1 mg/L) | 4 (4: <1 mg/L) | 4 (4: <1 mg/L) | 2 (2: 5-20 mg/L) | 2 (2: 5-20 mg/L) | 2 (2: 5-20 mg/L) | 4 (4: <1 mg/L) | 3 (3: 1-5 mg/L) | 3 (3: 1-5 mg/L) | 2 (2: 5-20 mg/L) | 3 (3: 0.2-1 mg/L) | 3 (3: 0.2-1 mg/L) | 1 (1: ≥20 mg/L) | 2 (2: 5-20 mg/L)
NC1=NN=C(CCCCOCc2cccc(CCc3ccccc3)c2)CS1 | 2 (2: 1-5 mg/L) | 2 (2: 1-5 mg/L) | 2 (2: 1-5 mg/L) | 2 (2: 1-5 mg/L) | 2 (2: 5-20 mg/L) | 2 (2: 5-20 mg/L) | 1 (1: ≥20 mg/L) | 1 (1: ≥20 mg/L) | 1 (1: ≥20 mg/L) | 2 (2: 5-20 mg/L) | 2 (2: 5-20 mg/L) | 2 (2: 5-20 mg/L) | 1 (1: ≥20 mg/L) | 2 (2: 1-5 mg/L) | 1 (1: ≥5 mg/L) | 1 (1: ≥20 mg/L) | 1 (1: ≥20 mg/L)
CCc1cccc(COCCCCC2=NN=C(N)SC2)c1 | 4 (4: <0.2 mg/L) | 4 (4: <0.2 mg/L) | 4 (4: <0.2 mg/L) | 4 (4: <0.2 mg/L) | 4 (4: <1 mg/L) | 4 (4: <1 mg/L) | 2 (2: 5-20 mg/L) | 2 (2: 5-20 mg/L) | 2 (2: 5-20 mg/L) | 4 (4: <1 mg/L) | 3 (3: 1-5 mg/L) | 4 (4: <1 mg/L) | 2 (2: 5-20 mg/L) | 4 (4: <0.2 mg/L) | 3 (3: 0.2-1 mg/L) | 2 (2: 5-20 mg/L) | 2 (2: 5-20 mg/L)
NC1=NN=C(CCCCOCc2cccc(-c3ccccc3)c2)CS1 | 1 (1: ≥5 mg/L) | 2 (2: 1-5 mg/L) | 2 (2: 1-5 mg/L) | 2 (2: 1-5 mg/L) | 2 (2: 5-20 mg/L) | 2 (2: 5-20 mg/L) | 1 (1: ≥20 mg/L) | 2 (2: 5-20 mg/L) | 1 (1: ≥20 mg/L) | 2 (2: 5-20 mg/L) | 2 (2: 5-20 mg/L) | 2 (2: 5-20 mg/L) | 1 (1: ≥20 mg/L) | 2 (2: 1-5 mg/L) | 1 (1: ≥5 mg/L) | 1 (1: ≥20 mg/L) | 1 (1: ≥20 mg/L)
